# Data reported in patent publication US20140031227A1, “HERBICIDAL COMPOSITIONS COMPRISING 4-AMINO-3-CHLORO-5-FLUORO-6-(4-CHLORO-2-FLUORO-3-METHOXYPHENYL) PYRIDINE-2-CARBOXYLIC ACID OR A DERIVATIVE THEREOF AND GLYPHOSATE OR GLUFOSINATE” (DOW AGROSCIENCES LLC, priority 2012, published 2014).
# Where a name gives a salt, the structure may show the parent alone.
# Tests used:
# Assay type in all cases: in vivo
# [1] = system: SORHA (Sorghum halepense (L.) Pers., johnsongrass); assay: Example III postemergence foliar-applied mixtures, row crop weeds (corn, soybean), greenhouse: SORHA
# Description: Seeds or nutlets of the desired test plant species were planted in a soil matrix prepared by mixing a loam or sandy loam soil (e.g., 43 percent silt, 19 percent clay, and 38 percent sand, with a pH of about 8.1 and an organic matter content of about 1.5 percent) and calcareous grit in an 80 to 20 ratio. The soil matrix was contained in plastic pots with a surface area of 84.6 square centimters (cm^2) and a volume of 560 cubic centimeters (cm^3). […] The plants were grown for 7-31 days (d) in a greenhouse with an approximate 15 hour (h) photoperiod which was maintained at about 23-29° C. during the day and 22-28° C. during the night. Nutrients (Peters Excel® 15-5-15 5-Ca 2-Mg) and water were added on a regular basis and supplemental lighting was provided with overhead metal halide 1000-Watt lamps as necessary. The plants were employed for testing when they reached the first, second, or third true leaf stage.
# Treatments consisted of the acid or esters of 4-amino-3-chloro-5-fluoro-6-(4-chloro-2-fluoro-3-methoxy-phenyl)pyridine-2-carboxylic acid (Compound A), each formulated as an
# SC (suspension concentrate), and various herbicidal components alone and in combination. Forms of compound A were applied on an acid equivalent basis.
# Other herbicidal components were applied on an acid equivalent or active ingredient basis and included the 5-enolpyruvylshikimate-3-phosphate synthase (EPSPS)-inhibiting herbicide, glyphosate dimethylamine salt, formulated as Durango DMA® and the glutamine synthase (GS)-inhibiting herbicide, glufosinate ammonium, formulated as Ignite® 280.
# For treatments comprised of formulated compounds, measured amounts of compounds were placed individually in 25 mL glass vials and diluted in a volume of 1.5% (v/v) Agri-dex® crop oil concentrate to obtain 6× stock solutions. […] Application solutions were prepared by adding an appropriate amount of each stock solution (typically 2 mL) and diluted to the appropriate final concentrations with the addition of an aqueous mixture of 1.5% (v/v) crop oil concentrate and water so that the final spray solutions contained 1.25% (v/v) crop oil concentrate.
# All stock solutions and applications solutions were visually inspected for compound compatibility prior to application. Compound requirements are based upon a 12 mL application volume at a rate of 187 liters per hectare (L/ha). Formulated compounds were applied to the plant material with an overhead Mandel track sprayer equipped with 8002E nozzles calibrated to deliver 187 L/ha over an application area of 0.503 square meters (m^2) at a spray height of 18 to 20 inches (46 to 50 cm) above the average plant canopy height. Control plants were sprayed in the same manner with the solvent blank.
# (§1) The treated plants and control plants were placed in a greenhouse as described above and watered by sub-irrigation to prevent wash-off of the test compounds. After approximately 2 weeks, the condition of the test plants as compared with that of the untreated plants was determined visually and scored on a scale of 0 to 100 percent where 0 corresponds to no injury or growth inhibition and 100 corresponds to complete kill.
# The following equation was used to calculate the expected activity of mixtures containing two active ingredients, A and B: […]
# [2] = system: IPOHE (Ipomoea hederacea Jacq., ivyleaf morningglory); assay: Example I postemergence foliar-applied mixtures, direct seeded rice weeds, greenhouse: IPOHE
# Description: (§2) Seeds or nutlets of the desired test plant species were planted in a soil matrix prepared by mixing a loam or sandy loam soil (e.g., 28.6 percent silt, 18.8 percent clay, and 52.6 percent sand, with a pH of about 5.8 and an organic matter content of about 1.8 percent) and calcareous grit in an 80 to 20 ratio. The soil matrix was contained in plastic pots with a volume of 1 quart and a surface area of 83.6 square centimeters (cm^2). […] The plants were grown for 8-22 days in a greenhouse with an approximate 14 hr photoperiod which was maintained at about 29° C. during the day and 26° C. during the night. Nutrients (Peters Excel® 15-5-15 5-Ca 2-Mg and iron chelate) were applied in the irrigation solution as needed and water was added on a regular basis. Supplemental lighting was provided with overhead metal halide 1000-Watt lamps as necessary. The plants were employed for testing when they reached the first through fourth true leaf stage.
# (§3) Treatments consisted of the acid or esters of 4-amino-3-chloro-5-fluoro-6-(4-chloro-2-fluoro-3-methoxy-phenyl)pyridine-2-carboxylic acid (Compound A), each formulated as an SC (suspension concentrate), and various herbicidal components alone and in combination. Forms of compound A were applied on an acid equivalent basis.
# (§4) For treatments comprised of formulated compounds, measured amounts of compounds were placed individually in 25 mL glass vials and diluted in a volume of 1.25% (v/v) Agri-Dex® crop oil concentrated to obtain 12× stock solutions. […] Application solutions were prepared by adding an appropriate amount of each stock solution (e.g., 1 mL) and diluted to the appropriate final concentrations with the addition of 10 mL of an aqueous mixture of 1.25% (v/v) crop oil concentrate so that the final spray solutions contained 1.25+/−0.05% (v/v) crop oil concentrate.
# (§5) All stock solutions and applications solutions were visually inspected for compound compatibility prior to application. Spray solutions were applied to the plant material with an overhead Mandel track sprayer equipped with a 8002E nozzles calibrated to deliver 187 L/ha over an application area of 0.503 m^2 at a spray height of 18 to 20 inches (46 to 50 cm) above average plant canopy height. Control plants were sprayed in the same manner with the solvent blank.
# as §1, with “3” for “2”
# (§6) Colby's equation was used to determine the herbicidal effects expected from the mixtures (Colby, S. R. 1967. Calculation of the synergistic and antagonistic response of herbicide combinations. Weeds 15:20-22.).
# [3] = system: ECHCO (Echinochloa colona (L.) Link, junglerice); assay: Example I postemergence foliar-applied mixtures, direct seeded rice weeds, greenhouse: ECHCO
# Description: as §2, §3, §4, §5
# as §1, with “3” for “2”
# as §6
# [4] = system: DIGSA (Digitaria sanguinalis (L.) Scop., large crabgrass); assay: Example I postemergence foliar-applied mixtures, direct seeded rice weeds, greenhouse: DIGSA
# Description: as §2, §3, §4, §5
# as §1, with “3” for “2”
# as §6
# [5] = system: ECHCG (Echinochloa crusgalli (L.) Beauv., barnyardgrass); assay: Example I postemergence foliar-applied mixtures, direct seeded rice weeds, greenhouse: ECHCG
# Description: as §2, §3, §4, §5
# as §1, with “3” for “2”
# as §6
# [6] = system: LEFCH (Leptochloa chinensis (L.) Nees, Chinese sprangletop); assay: Example I postemergence foliar-applied mixtures, direct seeded rice weeds, greenhouse: LEFCH
# Description: as §2, §3, §4, §5
# as §1, with “3” for “2”
# as §6
# [7] = Compound A Acid alone, 3.75 gae/ha
# [8] = Compound A Acid alone, 4.38 gae/ha
# [9] = Compound A Acid alone, 8.75 gae/ha
# [10] = Compound A Acid alone, 17.5 gae/ha
# [11] = Compound A Acid alone, 19.4 gae/ha
# [12] = Compound A Benzyl Ester alone, 4.38 gae/ha
# [13] = Compound A Benzyl Ester alone, 8 gae/ha
# [14] = Compound A Benzyl Ester alone, 8.75 gae/ha
# [15] = Compound A Benzyl Ester alone, 16 gae/ha
# [16] = Compound A Benzyl Ester alone, 17.5 gae/ha
# [17] = glufosinate ammonium alone, 271 gae/ha
# [18] = glufosinate ammonium alone, 135.5 gae/ha
smiles,measurement,setting,value
"COc1c(Cl)ccc(-c2nc(C(=O)O)c(Cl)c(N)c2F)c1F [Compound A Acid, 4-amino-3-chloro-6-(4-chloro-2-fluoro-3-methoxyphenyl)-5-fluoropyridine-2-carboxylic acid]",Visual Weed Control (%) - 13 DAA SORHA Obs,[1]; [7],0%
same,Visual Weed Control (%) - 16 DAA SORHA Obs,[1]; [7],0%
same,Visual Weed Control (%) - 13 DAA SORHA Obs,"[1]; Compound A Acid alone, 7.5 gae/ha",0%
same,Visual Weed Control (%) - 13 DAA SORHA Obs,"[1]; Compound A Acid alone, 15 gae/ha",0%
same,Visual Weed Control (%) - 21 DAA IPOHE Obs,[2]; [8],10%
same,Visual Weed Control (%) - 21 DAA IPOHE Obs,[2]; [9],35%
same,Visual Weed Control (%) - 21 DAA IPOHE Obs,[2]; [10],45%
same,Visual Weed Control (%) - 21 DAA ECHCO Obs,"[3]; Compound A Acid alone, 4.38 gae/ha (Table 2)",60%
same,Visual Weed Control (%) - 21 DAA ECHCO Obs,"[3]; Compound A Acid alone, 4.38 gae/ha (Tables 1, 9)",70%
same,Visual Weed Control (%) - 21 DAA ECHCO Obs,"[3]; Compound A Acid alone, 8.75 gae/ha (Table 2)",90%
same,Visual Weed Control (%) - 21 DAA ECHCO Obs,"[3]; Compound A Acid alone, 8.75 gae/ha (Tables 1, 9)",75%
same,Visual Weed Control (%) - 21 DAA DIGSA Obs,[4]; [8],35%
same,Visual Weed Control (%) - 21 DAA DIGSA Obs,[4]; [9],50%
same,Visual Weed Control (%) - 21 DAA DIGSA Obs,[4]; [10],40%
same,Visual Weed Control (%) - 20 DAA DIGSA Obs,[4]; [11],13%
same,Visual Weed Control (%) - 21 DAA ECHCG Obs,[5]; [8],15%
same,Visual Weed Control (%) - 21 DAA ECHCG Obs,[5]; [9],50%
same,Visual Weed Control (%) - 21 DAA LEFCH Obs,"[6]; Compound A Acid alone, 17.5 gae/ha (Table 2)",30%
same,Visual Weed Control (%) - 21 DAA LEFCH Obs,"[6]; Compound A Acid alone, 17.5 gae/ha (Tables 1, 9)",0%
same,Visual Weed Control (%) - 20 DAA LEFCH Obs,[6]; [11],5%
COc1c(Cl)ccc(-c2nc(C(=O)OCc3ccccc3)c(Cl)c(N)c2F)c1F [Compound A Benzyl Ester],Visual Weed Control (%) - 13 DAA SORHA Obs,"[1]; Compound A Benzyl Ester alone, 3.75 gae/ha",0%
same,Visual Weed Control (%) - 13 DAA SORHA Obs,"[1]; Compound A Benzyl Ester alone, 7.5 gae/ha",0%
same,Visual Weed Control (%) - 13 DAA SORHA Obs,"[1]; Compound A Benzyl Ester alone, 15 gae/ha",10%
same,Visual Weed Control (%) - 21 DAA IPOHE Obs,[2]; [12],10%
same,Visual Weed Control (%) - 21 DAA IPOHE Obs,[2]; [13],10%
same,Visual Weed Control (%) - 21 DAA IPOHE Obs,[2]; [14],10%
same,Visual Weed Control (%) - 20 DAA IPOHE Obs,[2]; [15],18%
same,Visual Weed Control (%) - 21 DAA IPOHE Obs,[2]; [15],10%
same,Visual Weed Control (%) - 21 DAA IPOHE Obs,[2]; [16],25%
same,Visual Weed Control (%) - 21 DAA IPOHE Obs,"[2]; Compound A Benzyl Ester alone, 32 gae/ha",45%
same,Visual Weed Control (%) - 21 DAA ECHCO Obs,[3]; [12],70%
same,Visual Weed Control (%) - 21 DAA ECHCO Obs,[3]; [14],75%
same,Visual Weed Control (%) - 21 DAA DIGSA Obs,[4]; [13],25%
same,Visual Weed Control (%) - 20 DAA DIGSA Obs,[4]; [15],18%
same,Visual Weed Control (%) - 21 DAA DIGSA Obs,[4]; [15],30%
same,Visual Weed Control (%) - 21 DAA ECHCG Obs,[5]; [12],10%
same,Visual Weed Control (%) - 21 DAA ECHCG Obs,[5]; [14],85%
same,Visual Weed Control (%) - 21 DAA LEFCH Obs,[6]; [12],0%
same,Visual Weed Control (%) - 21 DAA LEFCH Obs,[6]; [14],40%
same,Visual Weed Control (%) - 21 DAA LEFCH Obs,[6]; [16],45%
"CP(=O)(O)CCC(N)C(=O)O (stereo not drawn) [Glufosinate ammonium salt, 2-amino-4-(hydroxymethylphosphinyl)butanoic acid monoammonium salt, reference compound]",Visual Weed Control (%) - 13 DAA SORHA Obs,[1]; [17],20%
same,Visual Weed Control (%) - 13 DAA SORHA Obs,"[1]; glufosinate ammonium alone, 542 gae/ha",25%
same,Visual Weed Control (%) - 21 DAA IPOHE Obs,"[2]; glufosinate ammonium alone, 112.5 gai/ha",10%
same,Visual Weed Control (%) - 20 DAA IPOHE Obs,"[2]; glufosinate ammonium alone, 542 gai/ha",50%
same,Visual Weed Control (%) - 21 DAA ECHCO Obs,[3]; [18],0%
same,Visual Weed Control (%) - 21 DAA ECHCO Obs,[3]; [17],0%
same,Visual Weed Control (%) - 21 DAA DIGSA Obs,[4]; [18],0%
same,Visual Weed Control (%) - 21 DAA ECHCG Obs,[5]; [18],60%
same,Visual Weed Control (%) - 21 DAA ECHCG Obs,[5]; [17],10%
same,Visual Weed Control (%) - 21 DAA LEFCH Obs,[6]; [18],0%
same,Visual Weed Control (%) - 21 DAA LEFCH Obs,[6]; [17],10%
